Assay results as given in patent US11873279B2, “Compositions for treatment of ocular diseases” (Perfuse Therapeutics, Inc., priority 2020, dated 2024).

Assays:
[1] = tested on: laser-induced NHP glaucoma model; test: Laser-induced NHP glaucoma model, optic nerve head blood flow; type: in vivo, non-human primate (NHP); details: dose-dependent
Source text: Other examples of relevant animal glaucoma models are Morrison's rat model of chronically elevated IOP and the laser-induced non-human primate (NHP) glaucoma model. Glaucoma in Morrison's rat model is induced by sustained elevation of IOP through hypertonic saline administration via episcleral veins. […] Efficacy in the above-described glaucoma models is defined as reduction in IOP, improvement in optic nerve head or retinal blood flow from baseline, prevention or slowing of the progression of structural neurodegenerative changes such as retinal nerve fiber layer thickness as measured by optical coherence tomography (OCT) or retinal ganglion cell counts on flat mount as well as functional changes such as electroretinography (ERG) or contrast sensitivity after treatment with a composition containing Edonentan crystalline forms.

[2] = Slurry conversion of crystalline forms, XRPD confirmation (thermodynamic stability); type: physicochemical
Procedure: For example, a disclosed crystalline form (e.g., Form 4), may be stored under practical and economical storage conditions, while retaining physical properties so that it may be manufactured into a dosage form. In another set of examples, a disclosed crystalline form (e.g., Form 1, Form 2, Form 3) are converted to disclosed crystalline form (e.g., Form 4). For example, heating a slurry of crystalline Form 1 in about 20 mL of a mixture of isopropanol and water (1:2) at 80° C. for 24 hours, and then cooling and filtering the sample obtained from the solution affords the crystalline Form 4. In another example, stirring the amorphous form of a compound of Formula I in 20 mL of water at 25° C. for 15 hours affords crystalline Form 2, and then subsequently heating crystalline Form 2 at 100° C. for 40 hours followed by filtration affords the crystalline Form 4. In yet another example, heating a slurry of the anhydrous crystalline Form 3 in 30 mL of water at 80° C. for 40 hours and then cooling and filtering the sample obtained from the solution affords the crystalline Form 4. […] In an embodiment, a disclosed crystalline form may have improved chemical and/or physical stability when e.g., compounded in a pharmaceutical formulation, as compared to e.g., the amorphous form. In some embodiments, the crystalline form is crystalline Form 4.
In an alternate method, 150 mg of Edonentan (Form 3) was added to a mixture of isopropanol and water (1 mL and 2 mL, respectively). The resulting slurry was stirred at 15° C. for 48 hours and then filtered.
In an alternate method, 200 mg of Edonentan (Form 1) was added to a mixture of isopropanol and water (1.3 mL and 2.6 mL, respectively). The resulting solution was heated to 80° C. and stirred for 24 h, then cooled and filtered.

| Compound | Optic nerve head blood flow [1] | Thermodynamic stability relative to Form 1 ([2]; Form 1 in isopropanol/water (1.3 mL/2.6 mL), 80° C., 24 h, converted to Form 4 by XRPD) | Thermodynamic stability relative to Form 3 ([2]; Form 3 slurry in isopropanol/water (1 mL/2 mL), 15° C., 48 hours, converted to Form 4 by XRPD) | Thermodynamic stability compared to the other crystalline forms ([2]; summary statement of Example 6) |
| --- | --- | --- | --- | --- |
| Cc1onc(NS(=O)(=O)c2ccccc2-c2ccc(-c3ncco3)cc2CN(C)C(=O)CC(C)(C)C)c1C [Edonentan, N-[[2′-[[(4,5-dimethyl-3-isoxazolyl)amino]sulfonyl]-4-(2-oxazolyl)[1,1′-biphenyl]-2-yl]methyl]-N,3,3-trimethylbutanamide] | improve optic nerve head blood flow in a dose-dependent manner |  |  |  |
| Cc1onc(NS(=O)(=O)c2ccccc2-c2ccc(-c3ncco3)cc2CN(C)C(=O)CC(C)(C)C)c1C [Form 4, N-[[2′-[[(4,5-dimethyl-3-isoxazolyl)amino]sulfonyl]-4-(2-oxazolyl)[1,1′-biphenyl]-2-yl]methyl]-N,3,3-trimethylbutanamide] |  | more thermodynamically stable than Form 1 | more thermodynamically stable than Form 3 | higher thermodynamic stability compared to Form 1, Form 2 and Form 3 |
